# US12187703B2, “Crystalline forms of N-(3-(2-(2-hydroxyethoxy)-6-morpholinopyridin-4-yl)-4-methvlphenyl)-2 (trifluoromethyl)isonicotinamide as Raf inhibitors for the treatment of cancer” (NOVARTIS AG, priority 2019, dated 2025)
# Read-outs that look alike come from different tables or passages of the source.
# Experiments:
# Type in all cases: physicochemical
# [1] = Behaviour under compression, grinding and granulation with water
# [2] = Solubility at 25° C., 24 hours slurry; details: for Final pH: 25° C.; for solubility at 24 h: 25 °C, thermodynamic from solid, read-out: Solubility at 25° C.
# Procedure: A sample was weighed in a glass vial and solvent added to make a slurry followed by stirring or shaking at 25° C. for 24 hours. The amount of sample and solvents depends on the target concentration, e.g. if the target concentration is 10 mg/mL, the weight of the sample should be 10 mg and the amount of solvent volume should be 1 mL. The solid and liquid are separated by centrifugation at 13000 rpm for 2 minutes with 0.2 μm membrane. The filtrate is then used for the solubility test after appropriate dilution. The diluent is from the UPLC method. The solids obtained after equilibration were analyzed by XRPD after being dried at 40° C. under vacuum for 2 hours. DSC/TGA analysis was conducted for selected samples.
# [3] = Hygroscopicity, storage and solubility conclusions; details: for Hygroscopicity: non-hygroscopic defined as water uptake at most 2 w-%, 0 to 95% RH, 25° C. (GMS/DVS)
# Source text: The term “non-hygroscopic” as used herein refers to a compound showing a water uptake of at most 2 w-% in the sorption cycle when measured with GMS (or DVS) at a relative humidity in the range of from 0 to 95% RH and a temperature of (25.0±0.1) ° C., based on the weight of the compound. Non-hygroscopic is preferably up to 0.2%.
# [4] = Particle size distribution by Fraunhofer light diffraction; details: pilot manufacture batch, kilogram scale; listed as Modification A
# Procedure: (§1) Pilot manufacture batches producing Modification HA and Form A on kilogram scale were compared for their respective bulk powder properties. The particle size distribution (PSD) was determined according to the corresponding method for release. Other measurements were performed using technical methods known in the art or as described herein.
# A few drops of the dispersing aid were added to an appropriate amount of test substance. The mixture was mixed intensively, e.g. on a vortex mixer, in order to wet the substance thoroughly and to form a smooth and homogeneous paste. The resultant paste was diluted with the dispersion liquid to a final volume of 3-6 ml and the dispersion mixed again. The cumulative volume distribution was determined using a laser light diffraction instrument as stated above. The parameters could be adjusted accordingly so that the test dispersion is representative, homogeneous and well dispersed.
# Particle sizes were determined at the undersize values of 10%, 50% and 90% (×10, ×50, ×90), and additional values in question, from the cumulative volume distribution.
# [5] = Water activity experiments of Form A
# Procedure: About 100 mg of Form A is equilibrated with 0.5 mL solvent by stirring at RT or 50° C. The slurries are filtered. The wet cake is investigated by XRPD.
# [6] = Bulk density and flowability with ring shear tester; details: listed as Modification A
# Procedure: as §1
# [7] = Stability testing, solid state bulk (UPLC, color, XRPD, TGA)
# Procedure: (§2) X-ray powder diffraction (XRPD) analysis of all polymorph forms was performed using a Bruker D8 Discover x-ray diffractometer with XYZ stage. Measurements were taken at about 40 kV and 1 mA under the following conditions:
# (§3) Crystalline Monohydrate Form HA was analysed by thermogravimetric analysis (TGA) using a Discovery Thermogravimetric Analysis Calorimeter from TA instruments under the following conditions (see Table 6).
# (§4) No notable change in chemical purity, nor change in XRPD, nor change in TGA, was observed.
# [8] = as above; set-up: key: A: No change of color; B: Slight discoloration
# Procedure: as §2, §3, §4
# [9] = as above; set-up: key: A: No change of color; details: Solid state
# Procedure: as §2, §3, §4
# [10] = 50° C., water 0%/IPA 100%, aw 0.000
# [11] = 50° C., water 1%/IPA 99%, aw 0.124
# [12] = 50° C., water 3.2%/IPA 96.8%, aw 0.324
# [13] = 50° C., water 100%/IPA 0%, aw 1.000
# [14] = RT, water 0%/IPA 100%, aw 0.000
# [15] = RT, water 100%/IPA 0%, aw 1.000
# [16] = Solid state, 1 week 50° C., closed container
# [17] = Solid state, 1 week 50° C./75% r.h.
# [18] = Solid state, 1 week 80° C., closed container
# [19] = Solid state, 1 week 80° C./75% r.h.
# [20] = Xenon light (approx. 1200 kLuxh)
structure (smiles),measurement,setting,value
"Cc1ccc(NC(=O)c2ccnc(C(F)(F)F)c2)cc1-c1cc(OCCO)nc(N2CCOCC2)c1 [Form A, N-(3-(2-(2-hydroxyethoxy)-6-morpholinopyridin-4-yl)-4-methylphenyl)-2-(trifluoromethyl)isonicotinamide]",Physical form upon granulation with water or compression,[1],remains unchanged
same,Crystallinity when compressed,[1]; pressures of 3 to 6 MPa,slight decrease in crystallinity
same,Solubility at 25° C.,"[2]; 0.01N HCl, pH 2.0",1.4 µg/mL
same,Final pH,"[2]; 0.01N HCl, pH 2.0",2.16
same,Solubility at 25° C.,"[2]; 0.1N HCl, pH 1.0",292.9 µg/mL
same,Final pH,"[2]; 0.1N HCl, pH 1.0",1.07
same,Final pH,"[2]; Acetate buffer, pH 4.7",4.82
same,Final pH,"[2]; Borate buffer, pH 9.0",9.01
same,solubility at 24 h,"[2]; FaSSIF, pH 6.5, fassif, FaSSIF, pH 6.5",0.8 µg/mL
same,Final pH,"[2]; FaSSIF, pH 6.5",6.45
same,Solubility at 25° C.,"[2]; FeSSIF, pH 5.8",41.3 µg/mL
same,Final pH,"[2]; FeSSIF, pH 5.8",5.82
same,solubility at 24 h,"[2]; N,N-dimethylformamide, organic solvent or mixture, N,N-Dimethylformamide",> 10000 µg/mL
same,Final pH,"[2]; Phosphate buffer, pH 6.8",6.74
same,Solubility at 25° C.,"[2]; SGF, pH 2.0",22 µg/mL
same,Final pH,"[2]; SGF, pH 2.0",2.05
same,Final pH,[2]; Water,8.93
same,solubility at 24 h,"[2]; acetate buffer, pH 4.7, aqueous buffer, Acetate buffer, pH 4.7",< 0.3 µg/mL
same,solubility at 24 h,"[2]; acetonitrile, organic solvent or mixture, Acetonitrile",> 10000 µg/mL
same,solubility at 24 h,"[2]; borate buffer, pH 9, aqueous buffer, Borate buffer, pH 9.0",< 0.3 µg/mL
same,solubility at 24 h,"[2]; dichloromethane, organic solvent or mixture, Dichloromethane",> 10000 µg/mL
same,solubility at 24 h,"[2]; ethanol, organic solvent or mixture, Ethanol",> 10000 µg/mL
same,solubility at 24 h,"[2]; ethyl acetate, organic solvent or mixture, Ethyl acetate",> 10000 µg/mL
same,solubility at 24 h,"[2]; phosphate buffer, pH 6.8, aqueous buffer, Phosphate buffer, pH 6.8",< 0.3 µg/mL
same,solubility at 24 h,"[2]; water, water, Water",< 0.3 µg/mL
same,Relative solubility of forms,[3],more soluble than Form HA
same,"Solubility, overall rating",[3],adequate solubility
same,Stability when stored in bulk quantities,[3],stable when stored in bulk quantities
same,Hygroscopicity,[3],non-hygroscopic
same,"Diameter X of PSD measured during release, X50",[4],X50: 8 μm
same,"Diameter X of PSD measured during release, X90",[4],X90: 44 μm
same,After 1 d equilibration (wet cake XRPD),[5]; [10],Form A
same,After 5 d equilibration (wet cake XRPD),[5]; [10],Form A
same,After 1 d equilibration (wet cake XRPD),[5]; [11],Form A
same,After 5 d equilibration (wet cake XRPD),[5]; [11],Form A
same,After 1 d equilibration (wet cake XRPD),[5]; [12],Form A
same,After 5 d equilibration (wet cake XRPD),[5]; [12],Form A
same,After 1 d equilibration (wet cake XRPD),[5]; [13],Form A
same,After 5 d equilibration (wet cake XRPD),[5]; [13],Form A
same,After 1 d equilibration (wet cake XRPD),[5]; [14],Form A
same,After 5 d equilibration (wet cake XRPD),[5]; [14],Form A
same,After 1 d equilibration (wet cake XRPD),"[5]; RT, water 1%/IPA 99%, aw 0.120",Form A
same,After 5 d equilibration (wet cake XRPD),"[5]; RT, water 1%/IPA 99%, aw 0.120",Form A
same,After 1 d equilibration (wet cake XRPD),"[5]; RT, water 3.2%/IPA 96.8%, aw 0.316",Form A + HA
same,After 1 d equilibration (wet cake XRPD),[5]; [15],Form A
same,After 5 d equilibration (wet cake XRPD),[5]; [15],Form A
same,Time for complete conversion of Form A to Monohydrate HA,"[5]; water activity of 0.3, room temperature",5 days
same,"Bulk flowability with ring shear tester, rating in words",[6]; under 1250 Pa normal stress,“very cohesive”
same,Technical measurement of bulk flowability with ring shear tester,[6]; under 1250 Pa normal stress,1.45
same,Technical measurement of bulk density with ring shear tester,[6]; under no consolidation stress,71 kg/m^3
"Cc1ccc(NC(=O)c2ccnc(C(F)(F)F)c2)cc1-c1cc(OCCO)nc(N2CCOCC2)c1 [Form B, N-(3-(2-(2-hydroxyethoxy)-6-morpholinopyridin-4-yl)-4-methylphenyl)-2-(trifluoromethyl)isonicotinamide]","XRPD pattern upon grinding, compression and granulation with water",[1],did not change
same,Bulk (XRPD),[7]; [16],no change
same,"DP %, Bulk (UPLC)",[7]; [16],2.46%
same,Bulk (XRPD),[7]; [17],no change
same,"DP %, Bulk (UPLC)",[7]; [17],2.49%
same,Bulk (XRPD),[7]; [18],no change
same,"DP %, Bulk (UPLC)",[7]; [18],2.12%
same,Bulk (XRPD),[7]; [19],changed
same,"DP %, Bulk (UPLC)",[7]; [19],3.32%
same,Bulk (XRPD),[7]; [20],no change
same,"DP %, Bulk (HPLC)",[7]; [20],3.66%
same,Stability upon exposure to elevated temperature or humidity,[7]; degradation products and physical form,relatively stable
same,Solubility at 25° C.,"[2]; 0.01N HCl, pH 2.0",141.2 µg/mL
same,Final pH,"[2]; 0.01N HCl, pH 2.0",2.04
same,Solubility at 25° C.,"[2]; 0.1N HCl, pH 1.0",1026.4 µg/mL
same,Final pH,"[2]; 0.1N HCl, pH 1.0",1.02
same,Solubility at 25° C.,"[2]; Acetate buffer, pH 4.7",< 0.2 µg/mL
same,Final pH,"[2]; Acetate buffer, pH 4.7",4.78
same,Solubility at 25° C.,[2]; Acetonitrile,>10000 µg/mL
same,Solubility at 25° C.,"[2]; Borate buffer, pH 9.0",< 0.2 µg/mL
same,Final pH,"[2]; Borate buffer, pH 9.0",8.97
same,Solubility at 25° C.,[2]; Dichloromethane,>10000 µg/mL
same,Solubility at 25° C.,[2]; Ethanol,>10000 µg/mL
same,Solubility at 25° C.,[2]; Ethyl acetate,>10000 µg/mL
same,Solubility at 25° C.,"[2]; FaSSIF, pH 6.5",1.4 µg/mL
same,Final pH,"[2]; FaSSIF, pH 6.5",6.91
same,Solubility at 25° C.,"[2]; FeSSIF, pH 5.8",137 µg/mL
same,Final pH,"[2]; FeSSIF, pH 5.8",6.08
same,Solubility at 25° C.,"[2]; N,N-Dimethylformamide",>10000 µg/mL
same,Solubility at 25° C.,"[2]; Phosphate buffer, pH 6.8",< 0.2 µg/mL
same,Final pH,"[2]; Phosphate buffer, pH 6.8",6.75
same,Solubility at 25° C.,"[2]; SGF, pH 2.0",2.1 µg/mL
same,Final pH,"[2]; SGF, pH 2.0",2.02
same,Solubility at 25° C.,[2]; Water,< 0.2 µg/mL
same,Final pH,[2]; Water,8.11
same,solubility at 24 h,"[2]; heptane, organic solvent or mixture, Heptane",< 0.2 µg/mL
same,Relative solubility of forms,[3],more soluble than Form A
same,"Solubility, overall rating",[3],adequate solubility
same,Stability when stored in bulk quantities,[3],stable when stored in bulk quantities
same,Hygroscopicity,[3],non-hygroscopic
same,Color (CL),[8]; [19],B
same,Color (CL),[8]; [20],B
same,Color (CL),"[9]; 1 week 50° C., closed container",A
same,Color (CL),[9]; 1 week 50° C./75% r.h.,A
same,Color (CL),"[9]; 1 week 80° C., closed container",A
